{"source": "patent US8765096B2", "about": "“Methods and compositions for treating and diagnosing kidney disease” (Endocyte, Inc, priority 2007, dated 2014)", "key": {"folate receptor": {"biological_target": "folate receptor (Homo sapiens, UniProt P15328)", "sequence (P15328 25-234)": "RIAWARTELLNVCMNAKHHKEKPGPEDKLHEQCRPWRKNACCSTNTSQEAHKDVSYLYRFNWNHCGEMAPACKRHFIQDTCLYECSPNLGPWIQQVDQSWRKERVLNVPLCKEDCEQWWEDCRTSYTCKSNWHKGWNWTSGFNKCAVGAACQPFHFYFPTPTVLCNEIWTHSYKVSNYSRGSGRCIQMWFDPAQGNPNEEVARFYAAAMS", "settings": "KB cells, 1 hour at 37° C., 100 nM 3H-folic acid, increasing competitor concentrations; folic acid = 1.0"}, "KB cells": {"system": "KB cells", "assay": "Cell viability in KB cells", "settings": "2, 10, and 50 nM, at 24 hours"}}, "note": "“Also recorded” adds a separate entry of the source."}
{"smiles": "CO[C@H]1C[C@@H]2CC[C@@H](C)[C@@](O)(O2)C(=O)C(=O)N2CCCC[C@H]2C(=O)O[C@H]([C@H](C)C[C@@H]2CC[C@@H](O)[C@H](OC)C2)CC(=O)[C@H](C)/C=C(\\C)[C@@H](OC(=O)OCCSSC[C@H](NC(=O)[C@H](CC(=O)O)NC(=O)[C@H](CC(=O)O)NC(=O)[C@H](CCCNC(=N)N)NC(=O)[C@H](CC(=O)O)NC(=O)CC[C@H](NC(=O)c2ccc(NCc3cnc4nc(N)[nH]c(=O)c4n3)cc2)C(=O)O)C(=O)O)[C@@H](OC)C(=O)[C@H](C)C[C@H](C)/C=C/C=C/C=C/1C", "note": "[EC0371]", "values": [{"measurement": "relative affinity at the folate receptor", "setting": "folate receptor", "result": 0.5}, {"measurement": "cytotoxicity (cell viability)", "setting": "KB cells", "result": "Neither rapamycin nor EC0371 is cytotoxic; also recorded: neither rapamycin nor EC0371 was found to be cytotoxic"}]}
